In PubChem BioAssay (NCI):
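Step 1: Grow cells in 96-well plates. Step 2: Expose to compound for 48 hours at 5 concentrations. Step 3: Interpolate endpoints linearly; if unreached, use highest concentration. TGI: total growth inhibition.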 The source made the active and inactive calls. No stated cut-off is given here; in the data, active means GI50 below about 0.43 µM; inactive means the rest.

Assays:
Assay in all cases: NCI tumour cell line growth inhibition, 48 h
[1] = tested on: A498 renal
[2] = tested on: ACHN renal
[3] = tested on: CAKI-1 renal
[4] = tested on: CCRF-CEM leukemia
[5] = tested on: COLO 205 colon
[6] = tested on: DLD-1 colon
[7] = tested on: EKVX NSCLC
[8] = tested on: HCT-15 colon
[9] = tested on: HL-60(TB) leukemia
[10] = tested on: HOP-18 NSCLC
[11] = tested on: HOP-92 NSCLC
[12] = tested on: IGROV1 ovarian
[13] = tested on: K-562 leukemia
[14] = tested on: KM20L2 colon
[15] = tested on: LOX IMVI melanoma
[16] = tested on: LXFL 529 NSCLC
[17] = tested on: M14 melanoma
[18] = tested on: M19-MEL melanoma
[19] = tested on: MALME-3M melanoma
[20] = tested on: MOLT-4 leukemia
[21] = tested on: NCI-H226 lung
[22] = tested on: NCI-H23 lung
[23] = tested on: NCI-H460 lung
[24] = tested on: NCI-H522 lung
[25] = tested on: OVCAR-3 ovarian
[26] = tested on: OVCAR-8 ovarian
[27] = tested on: RPMI-8226 leukemia
[28] = tested on: RXF-631 renal
[29] = tested on: SF-268 CNS
[30] = tested on: SF-295 CNS
[31] = tested on: SF-539 CNS
[32] = tested on: SK-MEL-2 melanoma
[33] = tested on: SK-MEL-28 melanoma
[34] = tested on: SK-MEL-5 melanoma
[35] = tested on: SK-OV-3 ovarian
[36] = tested on: SN12C renal
[37] = tested on: SNB-19 CNS
[38] = tested on: SNB-75 CNS
[39] = tested on: SNB-78 CNS
[40] = tested on: SW-620 colon
[41] = tested on: TK-10 renal
[42] = tested on: U251 CNS
[43] = tested on: UACC-62 melanoma
[44] = tested on: UO-31 renal
[45] = tested on: XF 498 CNS
[46] = tested on: 786-0 renal
[47] = tested on: A549 NSCLC
[48] = tested on: DMS 273 small cell lung
[49] = tested on: HOP-62 NSCLC
[50] = tested on: HT29 colon
[51] = tested on: KM12 colon
[52] = tested on: OVCAR-4 ovarian
[53] = tested on: OVCAR-5 ovarian
[54] = tested on: RXF 393 renal
[55] = tested on: SR leukemia
[56] = tested on: UACC-257 melanoma
[57] = tested on: DMS 114 small cell lung
[58] = tested on: HCC-2998 colon
[59] = tested on: HCT-116 colon

Measured: TGI

COc1cccc(C2C(C(=O)O)=C(CO)Oc3cc4c(cc32)OCO4)c1OC (stereo not given)
94.7 µM: [45]
not listed: [46] | [47] | [48] | [49] | [50] | [51] | [52] | [53] | [54] | [55] | [56] | [57] | [58] | [59]
> 100 µM: all other assays above

C[C@@]1(CO)O[C@H]1CCC#C[Si](C)(C)C
not listed: [1] | [10] | [18] | [33] | [34] | [57] | [58] | [59]
inactive: all other assays above

COc1cc(/C=N/c2nncs2)ccc1O
not listed: [5] | [6] | [15] | [24] | [25]
> 100 µM: all other assays above
